Results as given in patent US20230075170A1, “NOVEL SALTS OF NILOTINIB AND POLYMORPHIC FORMS THEREOF” (CIPLA LIMITED, priority 2020, published 2023).

Tests used:
[1] = Hygroscopicity (statement only); assay type: physicochemical
[2] = Stability towards moisture and humidity (statement only); assay type: physicochemical
[3] = Solubility (statement only); assay type: physicochemical
[4] = Chemical stability on storage (temperature and relative humidity)
Text: Conditions evaluated include temperature and relative humidity (RH).

[5] = 25 ± 2° C./60 ± 5% RH, 0 months
[6] = 25 ± 2° C./60 ± 5% RH, 2 months
[7] = 25 ± 2° C./60 ± 5% RH, 3 months

Nilotinib D-malate
hygroscopicity [1]: not hygroscopic
stability towards moisture and humidity [2]: relatively stable
solubility in physiologically acceptable solvents [3]: readily soluble

Nilotinib D-tartrate
hygroscopicity [1]: not hygroscopic
5- methyl isomer impurity (NMT 3 ppm) ([4]; 2 to 8° C., 0 months): 0.6 ppm
Total impurities (NMT 0.4%) ([4]; 2 to 8° C., 0 months): 0.01%
XRPD ([4]; 2 to 8° C., 0 months): Form C1
5- methyl isomer impurity (NMT 3 ppm) ([4]; 2 to 8° C., 1 month): 0.5 ppm
XRPD ([4]; 2 to 8° C., 1 month): Stable
5- methyl isomer impurity (NMT 3 ppm) ([4]; 2 to 8° C., 2 months): 0.7 ppm
XRPD ([4]; 2 to 8° C., 2 months): Stable
5- methyl isomer impurity (NMT 3 ppm) ([4]; 2 to 8° C., 3 months): 1.1 ppm
Total impurities (NMT 0.4%) ([4]; 2 to 8° C., 3 months): 0.05%
XRPD ([4]; 2 to 8° C., 3 months): Stable
5- methyl isomer impurity (NMT 3 ppm) [4, 5]: 0.6 ppm
Total impurities (NMT 0.4%) [4, 5]: 0.01%
XRPD [4, 5]: Form C1
5- methyl isomer impurity (NMT 3 ppm) ([4]; 25 ± 2° C./60 ± 5% RH, 1 month): 0.5 ppm
XRPD ([4]; 25 ± 2° C./60 ± 5% RH, 1 month): Stable
5- methyl isomer impurity (NMT 3 ppm) [4, 6]: 0.7 ppm
XRPD [4, 6]: Stable
5- methyl isomer impurity (NMT 3 ppm) [4, 7]: 1.1 ppm
Total impurities (NMT 0.4%) [4, 7]: 0.04%
XRPD [4, 7]: Stable
chemical stability / long term storage stability ([4]; temperature and relative humidity (RH)): chemically more stable
stability towards moisture and humidity [2]: relatively stable
